Source: article PMC8162438, “Cancer cell-selective modulation of mitochondrial respiration and metabolism by potent organogold(III) dithiocarbamates” (Chemical Science, 2020)

System: MRC5
Experiment: MTT cell viability, human fetal lung fibroblasts MRC5
Assay type: cell-based
Conditions: 72 h
Description: All the gold(III) dithiocarbamate compounds display remarkable cell killing potential in a panel of breast, ovarian, lung and leukemia cancers. Preliminary studies focused on different cancer cell lines (MDA-MB-231, MDA-MB-175, and A2780), an immortalized normal retinal epithelial cell line (RPE-NEO) and human fetal lung fibroblasts (MRC5) (Fig. S111–S129 ^†). These adherent cells were exposed to a serial-diluted concentration of all ten compounds for 72 h. The cells were subsequently treated with 3-(4,5-dimethylthiazol-2-yl)-2,5-diphenyltetrazolium bromide (MTT) solutions, dissolved with DMSO and the absorbance at 570 nm was measured with a plate-reader.
In Vitro Biological Assays
Cell Culture. All cell lines were purchased from ATCC and routinely grown in a humidified incubator at 37 °C with 5-10% CO 2. MDA-MB-231, MDA-MB-175, MRC5, RPE-NEO, H460, and K562 were grown in DMEM supplemented with 10% FBS, 1% amphotericin and 1% penicillin/streptomycin. A2780 cells were grown in RPMI supplemented with 10% FBS, 1% amphotericin, and 1% penicillin/streptomycin, and 4 mM glutamine. All supplements along with PBS and trypsin-EDTA were purchased from Corning Inc. and used as is. […]
Cell Viability of 1a-1e and 2a-2e (Adherent Cell Lines). The cell viability of all 10 complexes were performed in MDA-MB-231, MDA-MB-175, A2780, RPE-NEO and MRC5. The cell viability of compound 2a was also determined in H460. Cells were grown to confluency and trypsin was added to detach and harvest cells. The cells were washed with 2 mL of PBS and suspended in 10 mL of the appropriate media. The cells were centrifuged at 2000 rpm for 5 minutes and the pellet washed with 2 mL of PBS then suspended in 5 mL of the appropriate […]
media. The cells were plated at a density of 2,000 cells/well in a 96-well clear bottom plate and allowed to adhere overnight at 37 °C with 5-10% CO 2. The compounds were prepared as a stock in DMSO and used fresh. The compounds were added at seven concentrations with a 3x serial dilution starting at 50 µM for the highest concentration and incubated at 37 °C for 72 h with 5-10% CO 2. The medium was removed and a solution of MTT (100 µL, prepared by dissolving MTT at 5 mg/mL and diluting by 10x with DMEM) was added to each well and incubated for 4 h at 37 ° C with 5-10% CO 2. The dye was removed from each well and 100 µL of DMSO was added to induce cell lysis. The plates were read using a Genios plate reader (λ = 570 nm). The experiment was performed in triplicate and data are plotted as the mean ± s.e.m. (n = 3). Data for 2a can be found in the main text (Figure 6) and the other complexes can be seen in the supplementary figures (S111 – S129). […]
Cells were grown to confluency and centrifuged at 2000 rpm for 5 minutes to collect the cell pellet. The cells were washed with 5 mL of PBS, suspended in 5 mL of DMEM, and centrifuged again at 2000 rpm for 5 minutes to collect the pellet. The pellet was then washed with 2 mL of PBS and suspended in 5 mL of DMEM. The cells were plated at density of 2,000 cells/well in a 96-well white bottom plate. 2a was prepared as a stock solution […]
10% CO 2. The cells were removed from the incubator and allowed to rest at room temperature for 30 minutes. To each designated well was then added 20 µL of CellTiter-Glo solution and orbitally shaken for 5 minutes and the luminescence (1000 ms integration and 150 ms gain) acquired on a Genios plate reader. The experiment was performed in triplicate. Data are plotted […]
Apoptosis Analysis. […]
A stock of 2a was prepared fresh in DMSO and added to the desired well at a concentration of 1 µM with a final volume of 2.5 mL and incubated for 4 h at 37 °C. A stock of H2O2 was prepared in PBS and the cells treated at a final concentration of 2 mM for 1 hour as a […]

Row | Structure (SMILES) | IC50
1 | C[N+](C)=C1[S][Au-2]2([S]1)[c]1ccccc1C(=O)c1cccc[n+]12.F[P-](F)(F)(F)(F)F (centres unmarked) [1a] | > 50 µM
2 | C[N+](C)=C1[S][Au-2]2([S]1)[c]1ccccc1Cc1cccc[n+]12.F[P-](F)(F)(F)(F)F (centres unmarked) [2a] | > 50 µM
